One assay has as its system LLC tumor cells. Put plainly: Adoptive transfer of LA1-treated tumor associated macrophages co-implanted with LLC tumor cells. The class given is in vivo, mice. The following applies: tumor-derived macrophages treated with LA1, mixed 1:1 with LLC cells. The procedure:
In vivo Macrophage Adoptive Transfer Experiments—F4/80+ cells were isolated from single cell suspensions of 700-800 mg LLC tumors from donor WT or Itgam−/− mice by FACS sorting. Primary bone marrow derived macrophages from WT or Itgam−/− mice were polarized and harvested into a single cell suspension. Alternatively, WT tumor derived macrophages were incubated with LA1 or saline. Purified macrophages were admixed 1:1 with LLC tumor cells and 5×10^5 total cells were injected subcutaneously into syngeneic host WT or Itgam−/− mice. Tumors were excised and weights were determined 14 days after inoculation.

The test system of assay [1] is human MDA-MB-231 mammary xenograft tumors. Put plainly: Orthotopic MDA-MB-231 mammary xenograft model. The class given is in vivo, mice. On the procedure:
Alternatively, 5 million MDA-MB 231 human breast cancer cells were injected orthotopically in the 4th mammary fat pad of 6-week old female nude mice. The tumors were allowed to establish for 35 days (at least 0.5 cm in diameter) and the tumor bearing mice were divided into three treatment groups including, vehicle, LA1 only (i.p.; 2.0 mg/kg; daily) and Taxol only (i.p.; 2.5 mg/kg every other day). Treatment was initiated on day 35 and continued until the end-point at day 58 post-tumor when all the mice were sacrificed and tumor tissue was harvested for histological analysis. Palpable tumors were measured using digital calipers 3 times weekly during the entire experiment to develop tumor growth curves.

Another assay concerns CL66-Luc breast tumors. Put plainly: Orthotopic CL66-Luc breast tumor model. The class given is in vivo, Balb/cJ mice. On the procedure: Tumor Studies—Subcutaneous tumor studies: 5×10^5 LLC or B16 cells were injected subcutaneously into syngeneic (C57BL/6) 6- to 8-week old WT or Itgam^−/− mice (n=18). Tumors were excised at 7, 14 or 21 days, cryopreserved in OCT, lysed for RNA purification or collagenase-digested for flow cytometric analysis of CD11b+, F4/80+ and Gr1+ expression. Tumor volumes were calculated using the equation (l^2×w)/2. CL66-luc cells (0.5×10^6 cells) were suspended in 50 μL of basement membrane extract Matrigel (BD Pharmingen) in PBS (1:1) and inoculated orthotopically in the fourth mammary fat pad of female Balb/cJ mice. Tumor dimensions were measured every 2 days, and tumor volume was calculated using the equation: V (mm^3)=[…], where length is the longest diameter of the tumor and width is the shorter diameter.
Mice were divided into four cohorts: vehicle control treated, LA1 only treated, Taxol only treated, LA1 and Taxol treated. LA1 (2 mg/kg) was dissolved in 2% DMSO and 1% Tween-20 in saline and Taxol (2.5 mg/kg) was dissolved in a 1:1:6 ratio of Cremophor EL: Ethanol:Saline. LA1 was administered by intraperitoneal injection (i.p.) daily, while Taxol was administered every other day by i.p. injection until end-point. LA1+Taxol treated mice received LA1 i.p. in the morning followed by Taxol i.p. within 4 hours. Tumor burden was evaluated every other day by caliper measurements. Prior to tissue collection, mice were anesthetized by ketamine/xylazine and the lungs were perfused with PBS followed by 10% formalin and harvested for fixation. Mammary tumor tissue was harvested and divided for fixation (10% formalin or OCT), snap frozen, or made into single-cell suspensions and analyzed by flow cytometric analysis. For survival studies, Balb/c mice bearing CL66-derived tumors were treated for 6 weeks after the first treatment and monitored thereafter. End point was considered when the tumor reached […] in diameter (n=10-15).
Immunohistochemistry—Tumor samples were collected and cryopreserved in O.C.T. Sections (5 μm) were fixed in 100% cold acetone, blocked with 8% normal goat serum for 2 hours, and incubated with primary antibodies at […] for 2 hours at room temperature. Sections were washed 3 times with PBS and incubated with fluorescent secondary antibodies. Primary antibodies where: F4/80 (BM8, eBioscience), CD4 (H129.19, BD Bioscience), CD8 (53-6.7, BD Bioscience), CD31 (MEC13.1, BD Bioscience), desmin (RB0914-P1, LabVision, Thermo Scientific), and anti-smooth muscle actin (SMA) (1A4, Sigma-Aldrich). Slides were counterstained with 4′,6-diamidino-2-phenylindole (DAPI) to identify nuclei. Immunofluorescence images were collected on a Nikon microscope (Eclipse TE2000-U) and analyzed using Metamorph image capture and analysis software (Version 6.3r5, Molecular Devices). Pixels/field or cell number/field were quantified in five 100× fields from 5 biological replicates. For LA1 studies, immunohistochemical staining was quantified by counting marker positive cells in 3 different areas analyzed at 40× using a light microscope for each tumor tissue (n=4−6). Tissues that were stained with fluorochrome conjugated secondary antibodies were counter stained with DAPI and analyzed using the Zeiss 700 LSM confocal microscope and Zen software (Carl Zeiss Group, Hartford, Conn.).
Alternatively, immunostaining was performed on formalin fixed, paraffin-embedded tumor tissues. Deparaffinized tissue sections (5 μm) were either stained with hemotoxylin-eosin or were subjected to antigen retrieval by steam heating in an acidic pH solution (Citrate-based, Vector Laboratories) prior to immune staining for α-SMA (clone 1A4, Fisher Scientific), MMP9 (polyclonal rabbit, Abcam), S100A8 (goat polyclonal (M-19), Santa Cruz), CD31 (clone RM0032-1D12, Abcam), or ARG1 (sc-18351, Santa Cruz) at 4° C. overnight. […]

Assay [2] deals with LLC cells and macrophages. Put plainly: In vitro proliferation of LLC cells and macrophages. It is filed as cell-based, murine.

As for `O=C(O)c1ccc(-c2ccc(/C=C3\SC(=S)N(Cc4ccccc4)C3=O)o2)cc1` [LA1, leukadherin 1], the “tumor growth after co-implantation of treated macrophages with LLC cells” value in the assay with LLC tumor cells is given as “completely inhibited tumor growth”. In assay [1] (LA1 2.0 mg/kg i.p. daily), the “MDA-MB-231 xenograft tumor growth” value is reported as “suppressed the growth of orthotopic, human MDA-MB-231 mammary xenograft tumors”. Besides, in assay [1] (mice which lack T cells), the “MDA-MB-231 tumor growth relative to control treated animals” value is reported as 50%. In addition, in the assay on CL66-Luc breast tumors (CL66-Luc tumors), the “CD8+ T cells in tumors” value is “increased the presence of CD8+ T cells”; the “MHCII+ macrophages in tumors” value is on record as “increased the presence of MHCII+ macrophages”; the “expression of Arginase1, S100A8 and MMP9 in tumors” value is “inhibited expression of Arginase1, S100A8 and MMP9 in CL66-Luc tumors”. Besides, the “MHCII, CD206, Arg1, MMP9 and S100A8 expression in TAMs” value with CL66-Luc breast tumors (CL66 Luc model) is “stimulating MHCII expression and reducing CD206, Arg1, MMP9 and S100A8 expression in TAMs”. Moreover, the “CL66-Luc tumor growth, combination with irradiation” value in the assay with CL66-Luc breast tumors (LA1 2 mg/kg + IR 20 Gy) is given as “synergized with irradiation to suppress CL66-Luc breast tumor growth”. Besides, the CL66-Luc tumor growth entry in the assay on CL66-Luc breast tumors (LA1 2 mg/kg i.p. daily, compared with taxol) is given as “potently reduced tumor growth in syngeneic, orthotopically implanted CL66-Luc breast tumors more effectively than taxol”. Further, the survival result in the assay on CL66-Luc breast tumors (mouse models of cancer) was “prolong survival in mouse models of cancer”. Moreover, the “CL66 Luc tumor growth relative to control tumors” value with CL66-Luc breast tumors (syngeneic, immune competent mice) worked out at 25%. For the same compound, the “LLC or macrophage viability” value in assay [2] is “no direct effect on LLC or macrophage viability”.
